Laboratory results published in patent US9486534B2, “Niacin conjugated fatty acid mixtures and their uses” (Catabasis Pharmaceuticals, Inc., priority 2009, dated 2016).

Columns and labels:
[1] = system: FASN (fatty acid synthase); assay: Effect on SREBP-1c target genes in HepG2 cells, real time PCR: FASN; type: cell-based; settings: HepG2 cells stimulated with oleate, 50 μM, 6 hours, normalized to 18S; FIG. 2
Procedure: (§1) HepG2 cells (ATCC) were seeded at 20,000 cells per well in 96 well plates. After adhering overnight, growth media (1.0% FBS in DMEM) was removed and cells were serum starved for 24 hours in DMEM containing 1% fatty acid free bovine serum albumin (BSA, Sigma). […] Cells were incubated for 6 hours and then washed with PBS. RNA was reverse-transcribed using the cells to cDNA reagents according to standard protocols (outlined in Applied Biosystem StepOne Real-time PCR protocols). Real time PCR of transcripts was performed with Taqman assays for the three specific genes FASN (fatty acid synthase), SCD (steroyl CoA desaturase) and ApoA1 (apolipoprotein A1). In all three cases, 18S-VIC® was used as a normalization control.

[2] = system: ApoA1 (apolipoprotein A1); assay: Effect on SREBP-1c target genes in HepG2 cells, real time PCR: ApoA1; type: cell-based; settings: HepG2 cells stimulated with oleate, 50 μM, 6 hours, normalized to 18S; FIG. 2
Procedure: as §1

[3] = system: SCD (steroyl CoA desaturase); assay: Effect on SREBP-1c target genes in HepG2 cells, real time PCR: SCD; type: cell-based; settings: HepG2 cells stimulated with oleate, 50 μM, 6 hours, normalized to 18S; FIG. 2
Procedure: as §1

[4] = system: ApoB secretion in HepG2 cells; settings: 3 concentrations (50, 100 and 200 μM), compared to niacin at 5 mM, FIG. 1
Procedure: HepG2 cells (ATCC) are seeded at 10,000 cells per well in 96 well plates. After adhering overnight, growth media (10% FBS in DMEM) is removed and cells are serum starved for 24 hours in DMEM containing 0.1% fatty acid free bovine serum albumin (BSA, Sigma). Cells are then treated with a compound. Niacin at 5 mM is used as a positive control. All treatments are performed in triplicate. Simultaneous with compound treatment, ApoB secretion is stimulated with addition of 0.1 oleate complexed to fatty acid free BSA in a 5:1 molar ratio. Incubation with a compound and oleate is conducted for 24 hours. Media supernatants are removed and ApoB concentrations are measured using ELISA kits (Mabtech AB). Percent inhibition of ApoB secretion is determined by normalizing data to vehicle treated wells. For a given compound, an IC50 (concentration at which 50% of ApoB secretion is inhibited) can also be determined by using a 4 parameter-fit inhibition curve model (Graph Pad Prism®). In each experiment, cell viability is determined using the ATPlite 1-Step kit (Perkin Elmer), such that compound effects due to cytotoxicity can be monitored.
The level of ApoB secretion was compared to that of niacin, evaluated at 5 mM concentration.

| Compound | FASN gene expression [1] | ApoA1 gene expression [2] | SCD gene expression [3] | inhibition of ApoB secretion [4] |
| --- | --- | --- | --- | --- |
| CC/C=C\C/C=C\C/C=C\C/C=C\C/C=C\CCCC(=O)NCCNC(=O)c1cccnc1 [I-8, N-(2-(5Z,8Z,11Z,14Z,17Z)-eicosa-5,8,11,14,17-pentaenamidoethyl)nicotinamide] | statistically significant inhibition | increase | statistically significant inhibition |  |
| CC/C=C\C/C=C\C/C=C\C/C=C\C/C=C\C/C=C\CCC(=O)NCCNC(=O)c1cccnc1 [I-7, N-(2-(4Z,7Z,10Z,13Z,16Z,19Z)-docosa-4,7,10,13,16,19-hexaenamidoethyl)nicotinamide] | statistically significant inhibition | increase | statistically significant inhibition | significant inhibition |
